These results are taken from article PMC5896380, “Selective imaging of cathepsin L in breast cancer by fluorescent activity-based probes” (Chemical Science, 2018).

The target in the experiment is T1, cathepsin L (Homo sapiens, UniProt P07711).
T1 construct: made in house
In words: Kinetic parameters of ACC substrates with cathepsin L. Conditions: for Km: read-out: KM; for hydrolysis by cathepsin L relative to Ac-His-Arg-Phe-Arg-ACC substrate: kcat/KM compared with reference substrate. The class given is biochemical. On the procedure: All kinetic experiments were performed using fMax (Molecular Devices) and CLARIOStar (BMG LABTECH) spectrofluorimeters operating in kinetic mode using 96-well plates. ACC-labeled substrates were screened using 355 nm and 460 nm wavelengths (excitation and emission, respectively). […] The buffer was prepared at room temperature and the enzyme kinetic studies were performed at 37 °C.
Classic substrate velocity plots were analyzed according to Michaelis–Menten kinetics and a detailed protocol for the determination of kinetic parameters for ACC-tagged substrates is found elsewhere.[56] […] Experiments were repeated at least three times and results are presented as an average. The SDs were below 15%.

[1] abbreviates: Fig. 4B, ACC substrates, 100 mM sodium acetate, 100 mM NaCl, 10 mM DTT, 1 mM EDTA, pH 5.5, 37 °C, cathepsin L 0.1–0.5 nM, average of at least three, SD below 15%.
[2] abbreviates: Table S2, cathepsin L, four independent experiments, S.D. below 15%.

Non-standard residues stand in square brackets, D forms with d. *: point of attachment. Phe(3-Cl) = N[C@@H](Cc1cccc(Cl)c1)C(=O)O; ACC = NC(=O)Cc1cc(=O)oc2cc(N*)ccc12; ClZ = O=C(OCc1ccccc1Cl)*; Orn = NCCC[C@H](N)C(=O)O; Dab = NCC[C@H](N)C(=O)O; Dap = NC[C@H](N)C(=O)O; Mob = COc1ccc(C*)cc1; Meb = Cc1ccc(C*)cc1; OBn = c1ccc(CO*)cc1; Bn = c1ccc(C*)cc1

T1 sequence (P07711 114-333): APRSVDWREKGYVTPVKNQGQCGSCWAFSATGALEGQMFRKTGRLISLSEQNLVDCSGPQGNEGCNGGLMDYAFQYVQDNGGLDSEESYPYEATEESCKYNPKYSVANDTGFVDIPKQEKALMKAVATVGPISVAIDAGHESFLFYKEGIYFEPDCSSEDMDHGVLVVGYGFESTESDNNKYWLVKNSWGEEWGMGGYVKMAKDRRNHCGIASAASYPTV

The term kcat denotes the number of substrate molecules converted per active site and unit of time at saturation. Broadly, the Km is the concentration of substrate that gives half-maximal velocity. Consider Ac-Dap-Orn-Phe(3-Cl)-Nle(OBzl)-ACC, for which the “hydrolysis by cathepsin L relative to Ac-His-Arg-Phe-Arg-ACC substrate” value is reported as approximately 4 times. Moreover, the kcat/KM under setting [1] was 47,400,000 M^-1s^-1. In addition, under setting [2], the turnover number (kcat) turned out to be 124 s⁻¹, the kcat/KM is recorded as 47,400,000 M-1s-1 and the Km came out at 2.63 µM.
For the substance “Ac-[Dab]R[Phe(3-Cl)]R-{ACC} (SMILES CC(=O)N[C@@H](CCN)C(=O)N[C@@H](CCCNC(=N)N)C(=O)N[C@@H](Cc1cccc(Cl)c1)C(=O)N[C@@H](CCCNC(=N)N)C(=O)Nc1ccc2c(CC(N)=O)cc(=O)oc2c1)”, the kcat/KM under setting [1] is recorded as 31,960,000 M^-1s^-1.
On the same count and under the same terms, under “Ac-[Dab][Orn][Phe(3-Cl)]R-{ACC} (SMILES CC(=O)N[C@@H](CCN)C(=O)N[C@@H](CCCN)C(=O)N[C@@H](Cc1cccc(Cl)c1)C(=O)N[C@@H](CCCNC(=N)N)C(=O)Nc1ccc2c(CC(N)=O)cc(=O)oc2c1)” stands 35,070,000 M^-1s^-1; under “Ac-[Dap]R[Phe(3-Cl)]R-{ACC} (SMILES CC(=O)N[C@@H](CN)C(=O)N[C@@H](CCCNC(=N)N)C(=O)N[C@@H](Cc1cccc(Cl)c1)C(=O)N[C@@H](CCCNC(=N)N)C(=O)Nc1ccc2c(CC(N)=O)cc(=O)oc2c1)”, 25,400,000 M^-1s^-1.
As to “Ac-[Dap][Orn][Phe(3-Cl)]C(Bn)-{ACC} (SMILES CC(=O)N[C@@H](CN)C(=O)N[C@@H](CCCN)C(=O)N[C@@H](Cc1cccc(Cl)c1)C(=O)N[C@@H](CSCc1ccccc1)C(=O)Nc1ccc2c(CC(N)=O)cc(=O)oc2c1)”, the kcat/KM under setting [1] is on record as 45,420,000 M^-1s^-1. Under setting [2], the catalytic constant (kcat) is 191 s⁻¹, the kcat/KM was 45,420,000 M-1s-1 and the Km worked out at 4.28 µM.
Consider “Ac-[Dap][Orn][Phe(3-Cl)]C(Meb)-{ACC} (SMILES CC(=O)N[C@@H](CN)C(=O)N[C@@H](CCCN)C(=O)N[C@@H](Cc1cccc(Cl)c1)C(=O)N[C@@H](CSCc1ccc(C)cc1)C(=O)Nc1ccc2c(CC(N)=O)cc(=O)oc2c1)”, for which the kcat/KM under setting [1] is given as 41,660,000 M^-1s^-1. Under setting [2], the turnover number (kcat) was determined as 207 s⁻¹ and the Michaelis-Menten constant (Km) amounted to 4.99 µM.
On to “Ac-[Dap][Orn][Phe(3-Cl)]C(Mob)-{ACC} (SMILES COc1ccc(CSC[C@H](NC(=O)[C@H](Cc2cccc(Cl)c2)NC(=O)[C@H](CCCN)NC(=O)[C@H](CN)NC(C)=O)C(=O)Nc2ccc3c(CC(N)=O)cc(=O)oc3c2)cc1)”, for which the “hydrolysis by cathepsin L relative to Ac-His-Arg-Phe-Arg-ACC substrate” value is reported as approximately 4 times. In addition, under setting [1], the kcat/KM is reported as 48,350,000 M^-1s^-1. Besides, under setting [2], the kcat amounted to 193 s⁻¹ and the Km was 4.15 µM.
Consider “Ac-[Dap][Orn][Phe(3-Cl)]E(OBn)-{ACC} (SMILES CC(=O)N[C@@H](CN)C(=O)N[C@@H](CCCN)C(=O)N[C@@H](Cc1cccc(Cl)c1)C(=O)N[C@@H](CCC(=O)OCc1ccccc1)C(=O)Nc1ccc2c(CC(N)=O)cc(=O)oc2c1)”, for which, under setting [1], the kcat/KM is reported as 34,270,000 M^-1s^-1. Further, under setting [2], the kcat was 188 s⁻¹, the kcat/KM was 34,270,000 M-1s-1 and the Michaelis-Menten constant (Km) was determined as 5.67 µM.
Take “Ac-[Dap][Orn][Phe(3-Cl)]K(ClZ)-{ACC} (SMILES CC(=O)N[C@@H](CN)C(=O)N[C@@H](CCCN)C(=O)N[C@@H](Cc1cccc(Cl)c1)C(=O)N[C@@H](CCCCNC(=O)OCc1ccccc1Cl)C(=O)Nc1ccc2c(CC(N)=O)cc(=O)oc2c1)”: under setting [1], the kcat/KM was 29,280,000 M^-1s^-1. In addition, under setting [2], the catalytic constant (kcat) amounted to 86.7 s⁻¹, the kcat/KM was 29,280,000 M-1s-1 and the Km was found to be 2.98 µM.
For “Ac-[Dap][Orn][Phe(3-Cl)]K-{ACC} (SMILES CC(=O)N[C@@H](CN)C(=O)N[C@@H](CCCN)C(=O)N[C@@H](Cc1cccc(Cl)c1)C(=O)N[C@@H](CCCCN)C(=O)Nc1ccc2c(CC(N)=O)cc(=O)oc2c1)” the same measures were 19,810,000 M^-1s^-1, 141 s⁻¹, 19,810,000 M-1s-1 and 7.11 µM.
